Values of other authors as cited in patent US20010046961A1, “Method for the treatment of solid tumors by albumin microparticles incorporating paclitaxel” (ACS DOBFAR S.p.A., priority 2000, published 2001).

Tested on: head and neck cancer
Details: traditional treatment with Paclitaxel, for example head and neck cancer

CC(=O)O[C@H]1C(=O)[C@@]2(C)[C@H]([C@H](OC(=O)c3ccccc3)[C@]3(O)C[C@H](OC(=O)[C@H](O)[C@@H](NC(=O)c4ccccc4)c4ccccc4)C(C)=C1C3(C)C)[C@]1(OC(C)=O)CO[C@@H]1C[C@@H]2O [Paclitaxel]
treatment response percentage: 40%
